The structures appear in SMILES notation.

This is an account of results in patent US10357481B2 (MERCK SHARP & DOHME CORP., priority 2015, dated 2019).

The target in the experiment is T1, human PDE2A1 (Homo sapiens, UniProt O00408).
T1 construct: GST; purchased BPS Bioscience (San Diego, Calif.) 60020; host or cells: insect cells
T1 sequence (O00408 1-920 isoform O00408-2): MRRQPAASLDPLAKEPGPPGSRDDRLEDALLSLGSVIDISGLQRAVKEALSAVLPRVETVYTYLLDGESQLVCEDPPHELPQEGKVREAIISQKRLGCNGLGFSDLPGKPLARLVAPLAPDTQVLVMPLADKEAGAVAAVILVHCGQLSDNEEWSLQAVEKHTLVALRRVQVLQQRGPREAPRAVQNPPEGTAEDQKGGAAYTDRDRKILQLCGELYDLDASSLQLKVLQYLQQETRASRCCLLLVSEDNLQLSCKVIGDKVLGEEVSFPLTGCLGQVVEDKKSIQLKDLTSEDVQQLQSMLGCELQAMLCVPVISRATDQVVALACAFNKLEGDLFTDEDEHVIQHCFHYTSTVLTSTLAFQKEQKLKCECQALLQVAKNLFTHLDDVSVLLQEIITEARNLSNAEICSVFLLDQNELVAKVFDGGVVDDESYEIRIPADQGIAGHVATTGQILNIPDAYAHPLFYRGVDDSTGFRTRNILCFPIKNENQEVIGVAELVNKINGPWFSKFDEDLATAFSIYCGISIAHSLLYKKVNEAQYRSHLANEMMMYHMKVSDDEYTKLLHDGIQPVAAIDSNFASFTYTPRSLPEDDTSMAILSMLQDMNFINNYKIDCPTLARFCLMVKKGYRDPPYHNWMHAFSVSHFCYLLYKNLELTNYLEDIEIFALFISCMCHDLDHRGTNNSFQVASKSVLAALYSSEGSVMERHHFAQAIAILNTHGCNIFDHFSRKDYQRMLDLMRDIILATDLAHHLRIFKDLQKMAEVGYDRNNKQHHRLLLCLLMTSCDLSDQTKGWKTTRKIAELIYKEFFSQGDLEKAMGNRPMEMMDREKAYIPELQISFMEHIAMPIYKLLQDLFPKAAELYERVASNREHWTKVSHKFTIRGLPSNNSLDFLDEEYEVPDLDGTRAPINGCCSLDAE
As to the kind of experiment: IMAP FP PDE selectivity panel, human PDE2A1. It counts as biochemical. The settings on record: Lab B; read-out: Human PDE2 Ki (nM) Lab B. Here is the method: Selectivity for PDE2, as compared to other PDE families, was assessed using the IMAP® technology. Human PDE10A2 enzyme was prepared from cytosolic fractions of transiently transfected HEK cells.
Assays for PDE 1 through 11 were performed in parallel at room temperature in 384-well microtiter plates with an incubation volume of 20.2 μL. Solutions of test compounds were prepared in DMSO and serially diluted with DMSO to yield 30 μL of each of ten solutions differing by 3-fold in concentration, at 32 serial dilutions per plate. […] A Labcyte POD 810 (Labcyte, Sunnyvale, Calif.) was used to dispense 200 nL from each well of the titration plate to make eleven copies of the assay plate for each titration, one copy for each PDE enzyme. A solution of each enzyme (dilution from aliquots, sufficient to produce 20% substrate conversion) and a separate solution of FAM-labeled cAMP or FAM-labeled cGMP from Molecular Devices (Sunnyvale, Calif., product # R7506 or cGMP#R7508), at a final concentration of 50 nM were made in the assay buffer (10 mM Tris HCl, pH 7.2, 10 mM MgCl2, 0.05% NaN3 0.01% Tween-20, and 1 mM DTT). Note that the substrate for PDE2 is 50 nM FAM cAMP containing 1000 nM of cGMP. The enzyme and the substrate were then added to the assay plates in two consecutive additions of 10 μL and then shaken to mix. The reaction was allowed to proceed at room temperature for 60 minutes. A binding solution was then made from the kit components, comprised of 80% Solution A, 20% Solution B and binding reagent at a volume of 1/600 the total binding solution. The enzymatic reaction was stopped by addition of 60 μL of the binding solution to each well of the assay plate. The plates were sealed and shaken for 10 seconds. The plates were incubated at room temperature for one hour, then the parallel and perpendicular fluorescence was measured using a Tecan Genios Pro plate reader (Tecan, Switzerland). […] The intrinsic PDE2 inhibitory activity of a compound which may be used in accordance with the present invention may be determined by these assays.
On to `CC(C)(O)[C@H](Nc1cc(C(F)F)cc2ncnn12)c1ccc(S(F)(F)(F)(F)F)cc1` [Example 283, (1R)-1-{[7-(Difluoromethyl) [1,2,4]triazolo[1,5-a]pyridin-5-yl]amino}-2-methyl-1-[4-(pentafluoro-λ^6-sulfanyl)phenyl]propan-2-ol], for which the Ki came to 498 nM.
With `Cc1cc(NC2(c3ccc(C(F)(F)F)c(F)c3)CC2)n2nc(C)nc2n1` [Example 192, N-(1-(3-Fluoro-4-(trifluoromethyl)phenyl)cyclopropyl)-2,5-dimethyl-[1,2,4]triazolo [1,5-a]pyrimidin-7-amine], the Ki worked out at 91 nM.
Under `CC(C)(O)[C@@H](Nc1cc(CO)cc2ncnn12)c1ccc(OC(F)(F)F)cc1F` [Example 273, (1S)-1-[2-Fluoro-4-(trifluoromethoxy)phenyl]-1-{[7-(hydroxymethyl)[1,2,4]triazolo [1,5-a]pyridin-5-yl]amino}-2-methylpropan-2-ol] stands 102 nM.
In the case of `C[C@@H](Nc1cc(CO)cc2ncnn12)c1ccc(C(F)(F)F)c(F)c1` [Example 272, [5-({(1R)-1-[3-Fluoro4-(trifluoromethyl)phenyl]ethyl}amino)[1,2,4]triazolo[1,5-a]pyridin-7-yl]methanol], the Ki amounted to 121 nM.
Take `CC(C)(C)[C@@H](Nc1cncc2ncnn12)c1ccc(C(F)(F)F)c(F)c1` [Example 284]: the Ki was 156 nM.
Under `CC(C)(C)c1cc(NC(c2ccc(S(F)(F)(F)(F)F)cc2)C(C)(C)O)n2ncnc2n1` (single isomer, unassigned) [Example 150, (1S or R)-1-[(5-tert-Butyl[1,2,4]triazolo[1,5-a]pyrimidin-7-yl)amino]-2-methyl-1-[4-(pentafluoro-λ^6-sulfanyl)phenyl] propan-2-ol] stands above 2960 nM; under `Cc1cc(NC(c2ccc(OC(F)(F)F)c(F)c2)C(C)(C)O)n2nc(C)nc2n1` (single isomer, unassigned) [Example 132, (1S or R)-1-[(2,5-Dimethyl[1,2,4]triazolo[1,5-a]pyrimidin-7-yl)amino]-1-[3-fluoro-4-(trifluoromethoxy)phenyl]-2-methylpropan-2-ol], above 2960 nM; under `COCC(Nc1cc(C)nc2ncnn12)c1ccc(C(F)(F)F)c(F)c1` (single isomer, unassigned) [Example 210, (S)- or (R)-N-(1-(3-Fluoro-4-(trifluoromethyl)phenyl)-2-methoxyethyl)-5-methyl-[1,2,4]triazolo [1,5-a]pyrimidin-7-amine], 583 nM.
For `CC(C)(O)C(Nc1cc(C(F)F)nc2ncnn12)c1ccc(OC(F)(F)F)c(F)c1` (single isomer, unassigned) [Example 188, (1R or S)-{[5-(Difluoromethyl) [1,2,4]triazolo [1,5-a]pyrimidin-7-yl]amino}-1-[3-fluoro-4-(trifluoromethoxy)phenyl]-2-methylpropan-2-ol] the value was above 2960 nM; for `COCC(Nc1cc(C(F)(F)F)nc2ncnn12)c1ccc(C(F)(F)F)c(F)c1` (single isomer, unassigned) [Example 217, (R)- or (S)-N-(1-(3-Fluoro-4-(trifluoromethyl)phenyl)-2-methoxyethyl)-5-(trifluoromethyl)-[1,2,4]triazolo [1,5-a]pyrimidin-7-amine], 329 nM.
For `CC(C)(O)C(Nc1cc(C(F)(F)F)nc2ncnn12)c1ccc(OC(F)(F)F)cc1F` (single isomer, unassigned) [Example 171, (1S or R)-1-[2-Fluoro-4-(trifluoromethoxy)phenyl]-2-methyl-1-{[5-(trifluoromethyl) [1,2,4]triazolo [1,5-a]pyrimidin-7-yl]amino} propan-2-ol], the Ki is around 1560 nM.
Under `CC(C)(O)C(Nc1cc(C(F)F)nc2ncnn12)c1ccc(OC(F)F)c(F)c1` (single isomer, unassigned) [Example 189, (1S or R)-[4-(Difluoromethoxy)-3-fluorophenyl]-1-{[5-(difluoromethyl) [1,2,4]triazolo [1,5-a]pyrimidin-7-yl]amino}-2-methylpropan-2-ol] stands 17 nM.

As usually defined, the Ki is the equilibrium dissociation constant of an inhibitor or competing ligand from its target.
